Assay results as given in PMC11967820, “Deep Learning Combined with Quantitative Structure‒Activity Relationship Accelerates De Novo Design of Antifungal Peptides” (Advanced Science, 2025).
Like-named read-outs stand apart in the source and are kept apart here. No end group written: not given here.

Experiments:
[1] = system: C. albicans; test: Resistance induction by continuous passaging culture; assay type: cell-based, Candida albicans; details: for change of MIC on continuous passaging: SD broth, 24 h per generation, 28 °C
Protocol: The resistance tendency of c_AFPs developed in C. albicans was assessed utilizing a continuous passaging culture.^[ [23], [51] ^] […] Subsequently, 20 µL of culture was transferred to a fresh SD broth with the same concentration of c_AFPs/antibiotic. The concentrations of c_AFPs/antibiotic in the SD broth were doubled every 10 generations, and the MICs of the c_AFPs/antibiotic were detected every 5 generations. Each 24‐hour incubation was considered one generation. PBS (pH 6.0) was used as a blank control, and fluconazole was used as an antibiotic control. Each experiment was performed three times.

[2] = system: C. albicans; details: 0.12 mg kg^−1 intraperitoneally
Protocol: The systemic C. albicans infection mouse model was established following the reported reference.^[ [22] ^] Cyclophosphamide (150 mg kg^−1 d^−1) was first injected intraperitoneally for 3 days to disrupt the immunity of female Kunming mice (Experimental Animal Center of Zhengzhou University, SCXK Yu 2021–0009). […] The injections were given once every 24 h during the first week and once every 48 h during the second week. Survival rates and body weights of the mice in each group were recorded during treatment. At 0, 7, and 14 d of treatment, duplicate samples (n = 3) of the spleen and thymus were collected from each group to determine the immune organ index.^[ [54] ^] The ratio of organ weight to body weight was adopted to describe the immune organ index. At 14 d of treatment, liver, lung, kidney, and spleen tissues were collected from each group of mice and immersed in 4% paraformaldehyde fixative. Subsequently, the tissue samples were embedded in paraffin, followed by sectioned and stained with hematoxylin‐eosin (H&E). Finally, optical microscopy was used to observe the pathological changes in the organ tissues of the mice.

[3] = system: fluconazole‐resistant C. albicans; details: 1 × 10^6 CFU mL^−1, 28 °C, 12 h, then plated on SD agar 37 °C, 16 h
Protocol: Fluconazole‐resistant C. albicans was prepared following the established methods.^[ [23], [51], [52] ^]

[4] = system: human red blood cells (HRBCs); details: for MHC5, minimal hemolytic concentration that results in 5% human erythrocyte hemolysis: 2% fresh human red blood cells in saline, 37 °C, 30 min, absorbance 540 nm, mean ± SD, n = 3; for TI, therapeutic index against C. albicans: TI = MHC5/MIC100 (C. albicans)
Protocol: A 2% fresh human red blood cells (HRBCs) suspension was used in the hemolysis assay of c_AFPs.^[ [48], [50] ^] The c_AFPs solution was prepared in saline with a concentration range of 0–0.5 mg mL^−1. Then, 2% HRBCs suspension was incubated with different concentrations of c_AFPs in a 96‐well plate (37 °C, 30 min). […] Saline was used as a negative control, and Triton X‐100 (1%) was used as a positive control. Each experiment was replicated three times.

[5] = Day 7, fluconazole group, n = 3

Compound	change of MIC on continuous passaging ([1]; 25th generation)	change of MIC on continuous passaging ([1]; 40th generation)	MIC ([1]; Candida albicans, read-out: MIC of fluconazole against C. albicans)	change of MIC on continuous passaging ([1]; first 20 generations, 0.5 × MIC doubled every 10 generations)	splenic index [2, 5]	thymic index [2, 5]	thymic index ([2]; Day 14, fluconazole group, n = 3)	average increased weight after 14 days of treatment ([2]; fluconazole group, n = 10)	minimum fungicidal concentration (MFC) against fluconazole‐resistant C. albicans [3]	MHC5, minimal hemolytic concentration that results in 5% human erythrocyte hemolysis [4]	TI, therapeutic index against C. albicans [4]
OC(Cn1cncn1)(Cn1cncn1)c1ccc(F)cc1F [fluconazole]	increased twofold	eightfold	1.9 µg/mL	remained unchanged	9.89 mg/g	2.45 mg/g	5.16 mg/g	8.16 g	> 50 × MIC		
RLWRIVLIRKAR-NH2 [AFP‐11]									8 × MIC	46.51 ± 2.24 µg/mL	6.22
RLWRIVLIRRAK-NH2 [AFP‐10]									2 × MIC	48.11 ± 1.54 µg/mL	13.71
RLWRIVVIRRAR-NH2 [AFP‐8]									4 × MIC	41.81 ± 1.88 µg/mL	5.45
VRWRIRLIRKLA-NH2 [AFP‐13]									2 × MIC	99.50 ± 3.28 µg/mL	15.89
